Patent US8394801B2, “Quinoxaline derivatives and their use for treating benign and malignant tumour disorders” (Aeterna Zentaris GmbH, priority 2009, dated 2013)

Columns and labels:
[1] = tested on: MOLT-3; experiment: Proliferation assay (Alamar Blue / XTT), MOLT-3; format: cell-based; conditions: Homo sapiens; cell line MOLT-3 (leukaemia)
[2] = tested on: MOLT-16; experiment: Proliferation assay (Alamar Blue / XTT), MOLT-16; format: cell-based; conditions: Homo sapiens; cell line MOLT-16 (leukaemia)
[3] = tested on: HCT116; experiment: Proliferation assay (Alamar Blue / XTT), HCT116; format: cell-based; conditions: Homo sapiens; cell line HCT-116 (colon)
[4] = tested on: U87MG; experiment: Proliferation assay (Alamar Blue / XTT), U87MG; format: cell-based; conditions: Homo sapiens, U-87 MG; cell line U87MG (glioma)
[5] = tested on: LNCaP; experiment: Proliferation assay (Alamar Blue / XTT), LNCaP; format: cell-based; conditions: Homo sapiens; cell line LnCap (prostate)
[6] = tested on: NCI H69 AR; experiment: XTT proliferation test, multi-drug-resistant NCI H69 AR; format: cell-based; conditions: Homo sapiens, NCI-H69AR, multi-drug-resistant cell line NCIH69 AR (lung)
Description: (§1) For further characterization, the substances according to the invention were examined in resistant tumour cell lines compared to non-resistant wild-type tumour cell lines.
(§2) The cell lines examined are the cell line A2780 (ovary), the cis-platin-resistant cell line A2780 (ovary), the cell line L1210 (leukaemia), the vincristine-resistant cell line L1210 (leukaemia), the cell line MESSA (uterus), the doxorubicin-resistant cell line MESSA Dx5 (uterus), the cell line NCIH69 (lung) and the multi-drug-resistant cell line NCIH69 AR (lung).

[7] = tested on: NALM-6; experiment: Proliferation assay (Alamar Blue / XTT), NALM-6; format: cell-based; conditions: Homo sapiens; cell line NALM-6 (leukaemia)
[8] = tested on: MCF-7; experiment: Proliferation assay (Alamar Blue / XTT), MCF-7; format: cell-based; conditions: Homo sapiens, MCF7; cell line MCF-7 (breast)
[9] = tested on: A2780; experiment: XTT proliferation test, A2780; format: cell-based; conditions: Homo sapiens, cell line A2780 (ovary), non-resistant
Description: as §1, §2

[10] = tested on: HSB-2; experiment: Proliferation assay (Alamar Blue / XTT), HSB-2; format: cell-based; conditions: Homo sapiens, HSB2; cell line HSB-2 (leukaemia)
[11] = tested on: MESSA; experiment: XTT proliferation test, MESSA; format: cell-based; conditions: Homo sapiens, MES-SA, cell line MESSA (uterus), non-resistant
Description: as §1, §2

[12] = tested on: MESSA DX5; experiment: XTT proliferation test, doxorubicin-resistant MESSA Dx5; format: cell-based; conditions: Homo sapiens, MES-SA/Dx5, doxorubicin-resistant cell line MESSA Dx5 (uterus)
Description: as §1, §2

[13] = tested on: RKOP27; experiment: Proliferation assay (Alamar Blue / XTT), RKOP27; format: cell-based; conditions: Homo sapiens; cell line RKOp27 (colon)
[14] = tested on: SKOV-3; experiment: Proliferation assay (Alamar Blue / XTT), SKOV-3; format: cell-based; conditions: Homo sapiens, SK-OV-3; cell line SKOV-3 (ovaries)
[15] = tested on: TMM; experiment: Proliferation assay (Alamar Blue / XTT), TMM; format: cell-based; conditions: Homo sapiens; cell line TMM (leukaemia)
[16] = tested on: PC-3; experiment: Proliferation assay (Alamar Blue / XTT), PC-3; format: cell-based; conditions: Homo sapiens, cell line PC3 (prostate)
[17] = tested on: NCI-H460; experiment: Proliferation assay (Alamar Blue / XTT), NCI-H460; format: cell-based; conditions: Homo sapiens; cell line NCI-H460 (lung)
[18] = tested on: A549; experiment: Proliferation assay (Alamar Blue / XTT), A549; format: cell-based; conditions: Homo sapiens; cell line A549 (lung)
[19] = tested on: L1210; experiment: XTT proliferation test, L1210; format: cell-based; conditions: Mus musculus, cell line L1210 (leukaemia), non-resistant
Description: as §1, §2

[20] = tested on: L363; experiment: Proliferation assay (Alamar Blue / XTT), L363; format: cell-based; conditions: Homo sapiens, L-363; cell line L363 (leukaemia)
[21] = tested on: NCI H69; experiment: XTT proliferation test, NCI H69; format: cell-based; conditions: Homo sapiens, cell line NCIH69 (lung), non-resistant
Description: as §1, §2

[22] = tested on: A2780 cis-Pt; experiment: XTT proliferation test, cis-platin-resistant A2780; format: cell-based; conditions: Homo sapiens, cis-platin-resistant cell line A2780 (ovary)
Description: as §1, §2

[23] = tested on: RS4, 11; experiment: Proliferation assay (Alamar Blue / XTT), RS4, 11; format: cell-based; conditions: Homo sapiens; cell line RS4,11 (leukaemia)
[24] = tested on: MDA-MB435; experiment: Proliferation assay (Alamar Blue / XTT), MDA-MB435; format: cell-based; conditions: Homo sapiens, MDA-MB-435; cell line MDA-MBA435 (breast)
[25] = tested on: MDA MB468; experiment: Proliferation assay (Alamar Blue / XTT), MDA MB468; format: cell-based; conditions: Homo sapiens, MDA-MB-468; cell line MDA-MB468 (breast)
[26] = tested on: KB-HeLa; experiment: Proliferation assay (Alamar Blue / XTT), KB-HeLa; format: cell-based; conditions: Homo sapiens; cell line KB/HeLa (cervix)
[27] = tested on: L1210 VCR; experiment: XTT proliferation test, vincristine-resistant L1210; format: cell-based; conditions: Mus musculus, vincristine-resistant cell line L1210 (leukaemia)
Description: as §1, §2

| EC50 [3] | EC50 [4] | EC50 [9] | EC50 [14] | EC50 [16] | EC50 [17] | melting point | EC50 [18] | EC50 [19] | EC50 [22] | EC50 [27] | SMILES | EC50 [6] | EC50 [11] | EC50 [12] | EC50 [13] | EC50 [21] | EC50 [25] | further results |
| --- | --- | --- | --- | --- | --- | --- | --- | --- | --- | --- | --- | --- | --- | --- | --- | --- | --- | --- |
| 0.024 µM | 0.01 µM | 0.0003 µM | 0.04 µM | 0.028 µM | 0.047 µM | 280 to 283 °C | 0.029 µM | 0.002 µM | 0.0005 µM | 0.004 µM | Cc1cc(-c2ccc3ncc(NC(=O)NC(C)C)nc3c2)cc(C)c1O [Compound 17, 1-[7-(4-Hydroxy-3,5-dimethylphenyl)quinoxalin-2-yl]-3-isopropylurea] | 0.086 µM | 0.152 µM | 0.139 µM | 0.026 µM | 0.027 µM | 0.039 µM | EC50 [1]: 0.036 µM; EC50 [2]: 0.056 µM; EC50 [5]: 0.04 µM; EC50 [7]: 0.054 µM; EC50 [8]: 0.032 µM; EC50 [10]: 0.037 µM; EC50 [15]: 0.032 µM; EC50 [20]: 0.078 µM; EC50 [23]: 0.037 µM; EC50 [24]: 0.018 µM; EC50 [26]: 0.037 µM |
| 0.007 µM | 0.002 µM | 0.018 µM | 0.03 µM | 0.011 µM | 0.027 µM | 243 to 244 °C | 0.008 µM | 0.015 µM | 0.014 µM | 0.019 µM | CCNC(=S)Nc1cnc2ccc(-c3cc(C)c(O)c(C)c3)cc2n1 [Compound 22, 1-Ethyl-3-[7-(4-hydroxy-3,5-dimethylphenyl)quinoxalin-2-yl]thiourea] | 0.008 µM | 0.141 µM | 0.038 µM | 0.028 µM | 0.01 µM | 0.053 µM |  |
| 0.003 µM | 0.002 µM | 0.022 µM | 0.016 µM | 0.003 µM | 0.021 µM | 274 to 276 °C | 0.009 µM | 0.005 µM | 0.019 µM | 0.004 µM | Cc1cc(-c2ccc3ncc(NC(=S)NC4CC4)nc3c2)cc(C)c1O [Compound 23, 1-Cyclopropyl-3-[7-(4-hydroxy-3,5-dimethylphenyl)quinoxalin-2-yl]-thiourea] | 0.0008 µM | 0.048 µM | 0.016 µM | 0.02 µM | 0.004 µM | 0.148 µM |  |
